From PubChem BioAssay AID2060894 (Molecular Pharmacology Branch, DTP, NCI, 2025)

Tested on: K12877-001-R-J1-PDC complex spheroid viability
Experiment: Anticancer human tumor K12877-001-R-J1-PDC patient-derived lung adenocarcinoma cell line growth inhibition [RAS]
Conditions: for IC50: curve of first compound; for viability, T/C: stronger effect = lower value
Method in brief: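 Multi-cell-type spheroids: tumor cells plus HUVEC endothelial cells and mesenchymal stem cells. RAS-pathway inhibitors were combined with targeted agents, each dosed in half-log steps down from clinical Cmax, or from 10 microM when Cmax was unknown.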
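Note: spheroids exposed to agents for one week before readout.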
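Throughout, for viability, T/C: tumour cells co-cultured with HUVEC and mesenchymal stem cells in spheroids.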

Which IC50 (second compound 0.0316 µM) does the source give for `C=CC(=O)Nc1cc(Nc2nccc(-c3cn(C)c4ccccc34)n2)c(OC)cc1N(C)CCN(C)C` + C#Cc1c(F)ccc2cc(O)cc(-c3ncc4c(N5CC6CCC(C5)N6)nc(OCC56CCCN5CC(F)C6)nc4c3F)c12 here?
The IC50 was over 1000 nM.

What about the IC50 (second compound 0.1 µM) of the same compound?
Its IC50 is over 1000 nM.

And the IC50 (second compound 0.316 µM)?
The IC50 was over 1000 nM.

And the IC50 (second compound 1 µM)?
Its IC50 is over 1000 nM.

What about the IC50 (second compound 3.16 µM) of the same compound?
The IC50 was over 1000 nM.

And the IC50 (second compound 10 µM)?
Its IC50 is over 1000 nM.

And the viability, T/C (second compound 0.0316 µM, first compound 0.00316 µM)?
The viability, T/C was 95.4%.

And the viability, T/C (second compound 0.0316 µM, first compound 0.01 µM)?
Its viability, T/C is 107%.

And the viability, T/C (second compound 0.0316 µM, first compound 0.0316 µM)?
Its viability, T/C is 108%.

And the viability, T/C (second compound 0.0316 µM, first compound 0.1 µM)?
Its viability, T/C is 106%.

And the viability, T/C (second compound 0.0316 µM, first compound 0.316 µM)?
The viability, T/C was 113%.

What about the viability, T/C (second compound 0.0316 µM, first compound 1 µM) of the same compound?
The viability, T/C was 94.3%.

And the viability, T/C (second compound 0.1 µM, first compound 0.00316 µM)?
The viability, T/C was 108%.

What about the viability, T/C (second compound 0.1 µM, first compound 0.01 µM) of the same compound?
Its viability, T/C is 102%.

What about the viability, T/C (second compound 0.1 µM, first compound 0.0316 µM) of the same compound?
Its viability, T/C is 102%.

And the viability, T/C (second compound 0.1 µM, first compound 0.1 µM)?
Its viability, T/C is 102%.

And the viability, T/C (second compound 0.1 µM, first compound 0.316 µM)?
Its viability, T/C is 119%.

And the viability, T/C (second compound 0.1 µM, first compound 1 µM)?
The viability, T/C was 97.7%.

And the viability, T/C (second compound 0.316 µM, first compound 0.00316 µM)?
Its viability, T/C is 103%.

And the viability, T/C (second compound 0.316 µM, first compound 0.01 µM)?
Its viability, T/C is 108%.

And the viability, T/C (second compound 0.316 µM, first compound 0.0316 µM)?
Its viability, T/C is 106%.

What about the viability, T/C (second compound 0.316 µM, first compound 0.1 µM) of the same compound?
Its viability, T/C is 106%.

And the viability, T/C (second compound 0.316 µM, first compound 0.316 µM)?
The viability, T/C was 108%.

And the viability, T/C (second compound 0.316 µM, first compound 1 µM)?
Its viability, T/C is 102%.

What about the viability, T/C (second compound 1 µM, first compound 0.00316 µM) of the same compound?
Its viability, T/C is 105%.

And the viability, T/C (second compound 1 µM, first compound 0.01 µM)?
Its viability, T/C is 99.4%.

What about the viability, T/C (second compound 1 µM, first compound 0.0316 µM) of the same compound?
Its viability, T/C is 101%.

What about the viability, T/C (second compound 1 µM, first compound 0.1 µM) of the same compound?
The viability, T/C was 115%.

And the viability, T/C (second compound 1 µM, first compound 0.316 µM)?
Its viability, T/C is 101%.

And the viability, T/C (second compound 1 µM, first compound 1 µM)?
Its viability, T/C is 95.3%.

And the viability, T/C (second compound 3.16 µM, first compound 0.00316 µM)?
Its viability, T/C is 107%.

And the viability, T/C (second compound 3.16 µM, first compound 0.01 µM)?
The viability, T/C was 100%.

What about the viability, T/C (second compound 3.16 µM, first compound 0.0316 µM) of the same compound?
Its viability, T/C is 106%.

What about the viability, T/C (second compound 3.16 µM, first compound 0.1 µM) of the same compound?
Its viability, T/C is 102%.

What about the viability, T/C (second compound 3.16 µM, first compound 0.316 µM) of the same compound?
Its viability, T/C is 87.5%.

What about the viability, T/C (second compound 3.16 µM, first compound 1 µM) of the same compound?
The viability, T/C was 95%.

And the viability, T/C (second compound 10 µM, first compound 0.00316 µM)?
The viability, T/C was 106%.

What about the viability, T/C (second compound 10 µM, first compound 0.01 µM) of the same compound?
Its viability, T/C is 95.1%.

What about the viability, T/C (second compound 10 µM, first compound 0.0316 µM) of the same compound?
Its viability, T/C is 89.1%.

What about the viability, T/C (second compound 10 µM, first compound 0.1 µM) of the same compound?
Its viability, T/C is 94%.

And the viability, T/C (second compound 10 µM, first compound 0.316 µM)?
The viability, T/C was 81.4%.

And the viability, T/C (second compound 10 µM, first compound 1 µM)?
The viability, T/C was 79.2%.

Which results are given for `CCc1c2c(nc3ccc(O)cc13)-c1cc3c(c(=O)n1C2)COC(=O)[C@]3(O)CC` + C#Cc1c(F)ccc2cc(O)cc(-c3ncc4c(N5CC6CCC(C5)N6)nc(OCC56CCCN5CC(F)C6)nc4c3F)c12?
IC50 (second compound 0.0316 µM): 4.79 nM; IC50 (second compound 0.1 µM): 5.39 nM; IC50 (second compound 0.316 µM): 5.3 nM; IC50 (second compound 1 µM): 5.51 nM; IC50 (second compound 3.16 µM): 5.35 nM; IC50 (second compound 10 µM): 4.74 nM; viability, T/C (second compound 0.0316 µM, first compound 0.000949 µM): 109%; viability, T/C (second compound 0.0316 µM, first compound 0.003 µM): 77.1%; viability, T/C (second compound 0.0316 µM, first compound 0.00949 µM): 10.3%; viability, T/C (second compound 0.0316 µM, first compound 0.03 µM): 4.77%; viability, T/C (second compound 0.0316 µM, first compound 0.0949 µM): 2.24%; viability, T/C (second compound 0.0316 µM, first compound 0.3 µM): 0.94%; viability, T/C (second compound 0.1 µM, first compound 0.000949 µM): 107%; viability, T/C (second compound 0.1 µM, first compound 0.003 µM): 89%; viability, T/C (second compound 0.1 µM, first compound 0.00949 µM): 12.3%; viability, T/C (second compound 0.1 µM, first compound 0.03 µM): 4.96%; viability, T/C (second compound 0.1 µM, first compound 0.0949 µM): 2.8%; viability, T/C (second compound 0.1 µM, first compound 0.3 µM): 1.27%; viability, T/C (second compound 0.316 µM, first compound 0.000949 µM): 89.3%; viability, T/C (second compound 0.316 µM, first compound 0.003 µM): 87.6%; viability, T/C (second compound 0.316 µM, first compound 0.00949 µM): 11.5%; viability, T/C (second compound 0.316 µM, first compound 0.03 µM): 4.86%; viability, T/C (second compound 0.316 µM, first compound 0.0949 µM): 2.49%; viability, T/C (second compound 0.316 µM, first compound 0.3 µM): 1.48%; viability, T/C (second compound 1 µM, first compound 0.000949 µM): 86.5%; viability, T/C (second compound 1 µM, first compound 0.003 µM): 99.4%; viability, T/C (second compound 1 µM, first compound 0.00949 µM): 11.7%; viability, T/C (second compound 1 µM, first compound 0.03 µM): 9.22%; viability, T/C (second compound 1 µM, first compound 0.0949 µM): 2.66%; viability, T/C (second compound 1 µM, first compound 0.3 µM): 1.23%; viability, T/C (second compound 3.16 µM, first compound 0.000949 µM): 95%; viability, T/C (second compound 3.16 µM, first compound 0.003 µM): 85.9%; viability, T/C (second compound 3.16 µM, first compound 0.00949 µM): 14.4%; viability, T/C (second compound 3.16 µM, first compound 0.03 µM): 7.59%; viability, T/C (second compound 3.16 µM, first compound 0.0949 µM): 3.16%; viability, T/C (second compound 3.16 µM, first compound 0.3 µM): 2.37%; viability, T/C (second compound 10 µM, first compound 0.000949 µM): 82.9%; viability, T/C (second compound 10 µM, first compound 0.003 µM): 75.4%; viability, T/C (second compound 10 µM, first compound 0.00949 µM): 11.4%; viability, T/C (second compound 10 µM, first compound 0.03 µM): 5.12%; viability, T/C (second compound 10 µM, first compound 0.0949 µM): 4.3%; viability, T/C (second compound 10 µM, first compound 0.3 µM): 1.89%
